These results are taken from PubChem BioAssay AID1259427 (Fisher Drug Discovery Resource Center, 2018).

Activity calls are given as the source filed them.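 The calls were made as follows: active = EC50 at or below a set limit, with no effect in the paired counter-screen assay; inactive = the rest.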 Some results are limits rather than exact numbers.

The assay concerns the target Aedes aegypti neuropeptide Y-like receptor 7 (NPYLR7). The assay is described as follows: NPYLR7 activation potency in cells – cell-based, Aedes aegypti, hit validation, mosquito biting behavior, confirmation (AID 1259427).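 Also: potency of agonists that activate the receptor and raise the calcium signal.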 Conditions: HEK293T NPYLR7/Galpha15/GCaMP6s, calcium fluorescence.
As to `O=C(O)CCn1c(O)c(C=C2C=Nc3ccccc32)sc1=S`, the EC50 was > 20 µM (inactive). The value for `CN(C)c1ccc(/C=C2/SC(=S)N(CC(=O)O)C2=O)cc1Br` was “inactive”; that for `CC1(C)CC(=O)C2C(=Nc3[nH]c(=S)[nH]c(=O)c3C2c2ccc3c(c2)OCO3)C1` (stereo not given) was > 20 µM (inactive). The value for `COc1cccc(CN2C(=O)c3cccc(N)c3C2=O)c1` was > 20 µM (inactive). In the case of `CCOC(=O)C1CCCN(CC(=O)N2N=C(c3ccccc3Cl)CC2c2ccc(Cl)cc2)C1` (stereo not given), the EC50 was > 20 µM (inactive). Turning to `C=CCN1C(=O)/C(=C\c2ccc(O)cc2)SC1=S`, the EC50 was > 20 µM (inactive). Regarding `O=C1/C(=C/c2cc3ccccc3o2)Oc2c1ccc(O)c2CN1CCN(CCO)CC1`, the EC50 result is “inactive”. For `COc1ccc(OC)c(CCNc2nc3cnc(-c4cc(OC)c(OC)c(OC)c4)cc3n2C)c1`, the half-maximal effective concentration (EC50) was 12.7 µM.

`CCOC(=O)N1CCN(c2ccc(/C=C(\C#N)c3nc4ccccc4[nH]3)o2)CC1`: the EC50 was > 20 µM (inactive).

For `O=C(c1cnn(-c2ccccc2)n1)N1CCCC(COCc2ccccc2)C1` (stereo not given), the EC50 result was “inactive”.

As for `O=C(O)c1ccccc1-c1c2cc(Br)c(=O)cc-2oc2[c]([Hg])c(O)c(Br)cc12`, the EC50 was < 0.039 µM (inactive). For `CCOCCCN1C(=O)C(=Cc2ccccc2O)NC1=S`, the EC50 result was “inactive”. With `N#CC(=Cc1c(F)c(F)c(F)c(F)c1F)c1ccccn1`, the EC50 was > 20 µM (inactive). On to `CCN(CC)c1ccc2c(-c3ccccc3C(=O)O)c3ccc(=[N+](CC)CC)cc-3oc2c1`, for which the EC50 result was “inactive”. Regarding `CCOC(=O)C1CCN(C(=O)CC(c2cccc(C(F)(F)F)c2)c2c[nH]c3c(CC)cccc23)CC1` (stereo not given), the EC50 is > 20 µM (inactive). The value for `CC1(C)OC2OC(C(O)c3cc(O)c4c(c3O)C(=O)c3ccccc3C4=O)C(C)(O)C2O1` (stereo not given) was “inactive”; that for `COc1ccc(N2C(=O)/C(=C\c3ccc[nH]3)N(C)C2=S)c([N+](=O)[O-])c1` was > 20 µM (inactive); that for `CS(=O)(=O)c1ccc(-c2cccc3c2OC(CNC(=O)c2cc[n+]([O-])cc2)C3)cc1` (stereo not given) was 17.1 µM. As to `O=C1OC2(c3cc(Br)c(O)cc3Oc3c2cc(Br)c(O)[c]3[Hg])c2ccccc21` (stereo not given), the EC50 was < 0.039 µM (inactive). For `O=C1c2ccccc2C(=O)C1c1ccnc2ccccc12`, the EC50 is > 20 µM (inactive). `COc1ccc(C2=NN(C(=O)CN3CCOCC3)C(c3nc4ccccc4[nH]3)C2)cc1` (stereo not given): the EC50 was > 20 µM (inactive). For the molecule `O=P1(Nc2cc(C(F)(F)F)ccc2Cl)C=C(c2ccccc2)OC(c2ccccc2)=C1`, the EC50 is > 20 µM (inactive). Regarding `CSc1ccc(C2CC(c3cccs3)=Nc3ncnn32)cc1` (stereo not given), the EC50 result was “inactive”. Regarding `CC(C)c1nc(NC(=O)c2[nH]ncc2Br)n(C)n1`, the EC50 entry was “inactive”. `N#C/C(=C/c1ccc(N2CCCCC2)o1)c1cccc(F)c1`: the EC50 is > 20 µM (inactive). Take `Cc1ccc(Cl)c(Oc2cc(N3CCN(C(=O)c4ccc(Cl)c(Cl)c4)CC3)ncn2)c1`: the EC50 was > 20 µM (inactive). On to `COc1cc(/C=C2\SC(=S)N(C(C)C(=O)O)C2=O)ccc1O` (stereo not given), for which the EC50 entry is “inactive”. In the case of `O=C(O)CN1C(=O)/C(=C\c2cc([N+](=O)[O-])cc(Br)c2O)SC1=S`, the EC50 result is “inactive”. With `CCCCCN=C(N)NN=Cc1c[nH]c2ccc(OC)cc12`, the EC50 was 7.37 µM.

Take `CCN1C(=Cc2cc(C)[n+](C3CCCCC3)c(C)c2)Sc2ccccc21`: the EC50 is > 20 µM (inactive). The value for `CCCCNC(=O)CCCCCNC(N)=O` was > 20 µM (inactive); that for `CC1=NCCc2c1[nH]c1cc(O)ccc21` was “inactive”; that for `O=C(Nc1cccc(-c2nnco2)c1)C1CCCCC1` was > 20 µM (inactive). As to `Nc1ncnc2c1ncn2[C@@H]1O[C@H](CO)[C@@H](O)[C@H]1O`, the EC50 entry was “inactive”. For `CC1CCCCC1OCCNC(=O)C1(c2ccc(F)cc2)CCC1` (stereo not given), the EC50 was > 20 µM (inactive).

As usually defined, the EC50 is the midpoint of the concentration-response curve.
